Reference: patent US8470844B2, “Imidazoacridinone derivative compounds and methods for their use” (Technion Research & Development Foundation Limited, priority 2008, dated 2013)

Key:
ABCG2 (A549/K1.5 cells) [1] = target: T1, ABCG2 (A549/K1.5 cells) (Homo sapiens, UniProt Q9UNQ0); assay: Fluorescence microscopy of nuclear accumulation of IAs in A549/K1.5 cells; format: cell-based; settings: 10 μM IA, 1 hr
T1 construct: Drug resistant A549/K1.5 cells with ABCG2 overexpression were maintained under a continuous drug selection with 1.5 μM C-1305; endogenous in cells; host or cells: A549/K1.5 (C-1305-selected subline of human non-small cell lung cancer A549)
T1 sequence (Q9UNQ0 1-655): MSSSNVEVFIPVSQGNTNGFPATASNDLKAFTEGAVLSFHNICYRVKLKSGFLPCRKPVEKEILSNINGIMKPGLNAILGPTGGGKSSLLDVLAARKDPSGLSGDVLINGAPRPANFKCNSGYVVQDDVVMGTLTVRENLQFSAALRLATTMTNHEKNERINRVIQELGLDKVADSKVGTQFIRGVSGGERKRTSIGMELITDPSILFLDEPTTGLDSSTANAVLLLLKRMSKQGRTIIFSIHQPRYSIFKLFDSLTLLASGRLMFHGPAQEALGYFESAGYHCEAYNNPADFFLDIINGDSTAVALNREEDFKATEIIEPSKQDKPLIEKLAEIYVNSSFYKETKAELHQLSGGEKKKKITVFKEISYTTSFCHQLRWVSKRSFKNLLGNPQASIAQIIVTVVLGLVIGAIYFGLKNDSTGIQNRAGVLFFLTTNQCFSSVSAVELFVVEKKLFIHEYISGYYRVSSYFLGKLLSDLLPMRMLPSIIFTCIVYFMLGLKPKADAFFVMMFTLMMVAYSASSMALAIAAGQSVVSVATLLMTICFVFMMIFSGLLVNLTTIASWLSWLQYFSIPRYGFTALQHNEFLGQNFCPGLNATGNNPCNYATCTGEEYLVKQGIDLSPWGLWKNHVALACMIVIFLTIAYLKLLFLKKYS
Method: In immunofluorescence microscopy of plasma membrane targeting of ABCG2 and nuclear accumulation of IAs, cells (1×10^4/well) were seeded in 24-well plates (1 ml medium/well) and incubated for 2 days, following which some wells were supplemented with 10 μM IA-containing medium±5 μM FTC and incubated for 1 h at 37° C. Cells were then washed twice with ice-cold PBS containing 0.1% BSA and blocked for 10 min at 4° C. with PBS containing 5% BSA. Cells were then washed once with ice-cold PBS containing 0.1% BSA and incubated for 30 min at 4° C. with a Phycoerythrin-conjugated, affinity-purified 5D3 mouse anti-human ABCG2 monoclonal antibody (1:100; eBioscience). Unspecific fluorescence was determined using cells that were incubated only with a secondary Phycoerythrin (PE)-conjugated goat anti-mouse IgG (1:200; Jackson Immunoresearch Labs, West Grove, Pa.). Cells were then washed twice and subjected to fluorescence microscopy using a DMIRE2 fluorescence microscope equipped with a DC300FX camera (Leica Microsystems, Wetzlar, Germany).
In order to exclude the possibility that differential subcellular accumulation of IA derivatives is the basis of the observed difference in cytotoxicity and cellular fluorescence, A549/K1.5 cells were incubated with 10 μM of selected IA derivatives from both group A and B in the presence or absence of FTC and subjected to fluorescence microscopy.

ABCG2 (A549/K1.5 cells) [2] = target: T1, ABCG2 (A549/K1.5 cells); assay: Flow cytometric IA accumulation in A549/K1.5 cells with or without fumitremorgin C; format: cell-based
Method: In this assay, one ml aliquots of A549/K1.5 or CCRF-CEM cell suspensions (1×10^6 cells/ml) in growth medium containing 20 mM Hepes at pH 7.3 were distributed into 1.5 ml polypropylene Eppendorf test tubes. […] Rabindran, S. […] Alternatively, in time-course experiments, IA derivatives at a constant concentration of 10 μM were added to a CCRF-CEM cell suspension incubated at 37° C., and 1 ml aliquots were removed at variable time points up to 1 hour. Following incubation, test tubes were transferred to ice and centrifuged at 4° C. Cells were then washed twice and re-suspended in ice-cold PBS containing 1% fetal calf serum and kept in the dark at 4° C. until analysis. […] Quantitative evaluation of ABCG2 interaction with various IA derivatives: The extent of ABCG2-mediated resistance was expressed using the Resistance Fold (RF) parameter representing the ratio between the IC50 values of the resistant cells and parental cells.

A549/K1.5 cells = assay: MTT cytotoxicity assay, ABCG2-overexpressing A549/K1.5 cells; format: cell-based, Human; settings: for resistance of A549/K1.5 cells (in words): versus parental A549 cells
Method: Tissue culture: Human non-small cell lung cancer A549 cells and T-cell leukemia CCRF-CEM cells were grown under monolayer conditions or up to a maximal density of 10^6 cells/ml (for CCRF-CEM cells) in RPMI-1640 medium (GIBCO) supplemented with 10% fetal calf serum, 2 mM glutamine, 100 μg/ml penicillin and 100 μg/ml streptomycin (Biological Industries, Beth-Haemek, Israel) in a humid atmosphere of 5% CO2. Drug resistant A549/K1.5 cells with ABCG2 overexpression were maintained under a continuous drug selection with 1.5 μM C-1305. Bram, E. E., et al., (2007) Biochem Pharmacol 74(1), 41-53.
Cytotoxicity and growth inhibition assays: The cytotoxic activity of the various IA antitumor agents was determined using the MTT assay. Poindessous, V., et al., (2003) Clin Cancer Res 9(7), 2817-2825.
Exponentially growing cells were seeded at 5×10^3 cells/well in 24-well plates (2 ml medium/well). Following an overnight incubation, cells were exposed to different drug concentrations for 96 hours. Cellular viability was determined by adding the tetrazolium salt MTT for 4 h at 37° C., followed by solubilization of the intracellular precipitated formazan in 1 ml DMSO and absorbance was determined by a microplate reader (ASYS Hitech GmbH, Austria). Drug concentrations required to inhibit cell growth by 50% (IC50) compared with untreated controls were determined from the curves of survival versus drug concentrations using the SlideWrite software (Advanced Graphics Software, Inc., Encinitas, Calif.). Resistance folds (RF) were calculated by dividing the IC50 value of the resistant cells by that of the parental cell line. Values presented are means of at least three independent experiments, each performed in duplicates.
Quantitative evaluation of ABCG2 interaction with various IA derivatives: The extent of ABCG2-mediated resistance was expressed using the Resistance Fold (RF) parameter representing the ratio between the IC50 values of the resistant cells and parental cells. Likewise, ABCG2-dependent differential accumulation of IAs in ABCG2-overexpressing A549/K1.5 cells was compared using the ratio of IA accumulation in the presence or absence of the potent ABCG2 inhibitor FTC. This was termed the FTC-dependent Accumulation Fold (AF) and was determined for each IA at a constant IA concentration of 10 μM.

CCN(CC)CCNc1ccc2ncn3c4ccc(O)cc4c(=O)c1c23 [C-1311]
intracellular accumulation (fluorescence microscopy) (ABCG2 (A549/K1.5 cells) [1]; absence of FTC): no apparent intracellular accumulation
nuclear accumulation (fluorescence microscopy) (ABCG2 (A549/K1.5 cells) [1]; presence of 5 μM FTC): marked restoration of nuclear accumulation
ABCG2-mediated extrusion / interaction with ABCG2 (in words) (ABCG2 (A549/K1.5 cells) [2]): extruded by ABCG2-overexpressing lung cancer A549/K1.5 cells
IC50 (A549/K1.5 cells; ABCG2-overexpressing A549/K1.5 cells, 96 hours exposure, MTT): 2.34 ± 0.05 µM
RF (resistance fold) (A549/K1.5 cells; IC50 of A549/K1.5 cells divided by IC50 of parental A549 cells): 8.70
resistance of A549/K1.5 cells (in words) (A549/K1.5 cells): prominent resistance
resistance of A549/K1.5 cells (in words) (A549/K1.5 cells; listed as Symadex): marked drug resistance
